Source: ChEMBL document CHEMBL1132959, “Design of potent dicyclic (1-5/4-10) gonadotropin releasing hormone (GnRH) antagonists” (J Med Chem, 2000)
Bridge positions count the residues as written; N and C are the ends. Square brackets hold non-standard residues; d marks the D form. Peptide text beside a SMILES is read from it. dPhe(4-Cl) = N[C@H](Cc1ccc(Cl)cc1)C(=O)O; dPhe(4-F) = N[C@H](Cc1ccc(F)cc1)C(=O)O; d2Nal = N[C@H](Cc1ccc2ccccc2c1)C(=O)O; NMeL = CN[C@@H](CC(C)C)C(=O)O; ΔPro = O=C(O)[C@@H]1C=CCN1; Dap = NC[C@H](N)C(=O)O; βAla = NCCC(=O)O

target: T1, Gonadotropin-releasing hormone receptor (Rattus norvegicus, UniProt P30969); assay: Affinity for rat gonadotrophin releasing hormone (GnRH) receptor using HEK293 cells transfected with rat Gonadotropin-releasing hormone receptor; assay type: cell-based; details: not given
T1 sequence (P30969 whole entry): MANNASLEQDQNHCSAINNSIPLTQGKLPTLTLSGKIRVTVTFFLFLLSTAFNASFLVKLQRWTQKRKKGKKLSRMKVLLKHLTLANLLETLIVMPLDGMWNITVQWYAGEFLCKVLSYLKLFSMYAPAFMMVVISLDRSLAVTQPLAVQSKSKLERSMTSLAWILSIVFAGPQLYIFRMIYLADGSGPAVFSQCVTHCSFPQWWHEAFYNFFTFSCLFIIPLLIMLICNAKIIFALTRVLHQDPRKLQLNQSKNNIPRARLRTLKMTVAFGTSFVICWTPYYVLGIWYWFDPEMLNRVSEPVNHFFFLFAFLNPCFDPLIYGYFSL

Row | SMILES | Ki
1 | CC(=O)N[C@H]1CCC(=O)NCC(=O)NCC[C@@H]2NC(=O)[C@H](CC(=O)NC[C@@H](C(N)=O)NC(=O)[C@@H]3CCCN3C(=O)[C@H](CCCNC(=N)N)NC(=O)[C@H](CC(C)C)NC(=O)[C@@H](Cc3ccc4ccccc4c3)NC2=O)NC(=O)[C@@H](Cc2c[nH]c3ccccc23)NC(=O)[C@@H](Cc2ccc(Cl)cc2)NC1=O | 0.24 nM
2 | CC(=O)N[C@H]1CC(=O)NCC(=O)NCC[C@@H]2NC(=O)[C@H](CC(=O)NC[C@@H](C(N)=O)NC(=O)[C@@H]3CCCN3C(=O)[C@H](CCCN=C(N)N)NC(=O)[C@H](CC(C)C)NC(=O)[C@@H](Cc3ccc4ccccc4c3)NC2=O)NC(=O)[C@@H](Cc2c[nH]c3ccccc23)NC(=O)[C@@H](Cc2ccc(Cl)cc2)NC1=O | 0.22 nM
3 | CC(=O)N1CC=C[C@H]1C(=O)N[C@H](Cc1ccc(F)cc1)C(=O)N[C@H](Cc1c[nH]c2ccccc12)C(=O)N[C@H]1CC(=O)NC[C@@H](C(N)=O)NC(=O)[C@@H]2CCCN2C(=O)[C@H](CCCN=C(N)N)NC(=O)[C@H](CC(C)C)NC(=O)[C@@H](Cc2ccc3ccccc3c2)NC(=O)[C@H](Cc2ccc(O)cc2)NC1=O (Ac-[ΔPro][dPhe(4-F)][dW]DY[d2Nal]LRP[Dap]-NH2; lactam 4-10) | 0.27 nM
4 | CC(C)C[C@H]1C(=O)N[C@@H](CCCN=C(N)N)C(=O)N2CCC[C@H]2C(=O)NCCC(=O)N2CC=C[C@H]2C(=O)N[C@H](Cc2ccc(Cl)cc2)C(=O)N[C@H](Cc2c[nH]c3ccccc23)C(=O)N[C@@H](CO)C(=O)N[C@@H](Cc2ccc(O)cc2)C(=O)N[C@H](Cc2c[nH]c3ccccc23)C(=O)N1C (cyclo([NMeL]RP[βAla][ΔPro][dPhe(4-Cl)][dW]SY[dW])) | 14 nM

Continued, values first:

Row | Ki | SMILES
5 | 2.3 nM | CC(=O)N[C@H](Cc1ccc2ccccc2c1)C(=O)N[C@H](Cc1ccc(Cl)cc1)C(=O)N[C@@H]1CC(=O)NCCCC[C@@H](C(=O)N2CCC[C@H]2C(=O)N[C@H](C)C(N)=O)NC(=O)[C@H](CC(C)C)NC(=O)[C@@H](Cc2ccc3ccccc3c2)NC(=O)[C@H](CCCN=C(N)N)NC(=O)[C@H](C)NC1=O
6 | 21 nM | CC(=O)N[C@H](Cc1ccc2ccccc2c1)C(=O)N[C@H](Cc1ccc(Cl)cc1)C(=O)N[C@@H]1CC(=O)NC[C@@H](C(=O)N2CCC[C@H]2C(=O)N[C@H](C)C(N)=O)NC(=O)[C@H](CC(C)C)NC(=O)[C@@H](Cc2ccc3ccccc3c2)NC(=O)[C@H](CCCN=C(N)N)NC(=O)[C@H](C)NC1=O
7 | 14 nM | CC(=O)N[C@H](Cc1ccc2ccccc2c1)C(=O)N[C@H](Cc1ccc(Cl)cc1)C(=O)N[C@@H]1CC(=O)NCCC[C@@H](C(=O)N2CCC[C@H]2C(=O)N[C@H](C)C(N)=O)NC(=O)[C@H](CC(C)C)NC(=O)[C@@H](Cc2ccc3ccccc3c2)NC(=O)[C@H](CCCNC(=N)N)NC(=O)[C@H](C)NC1=O
8 | 13 nM | CC(=O)N[C@H](Cc1ccc2ccccc2c1)C(=O)N[C@H](Cc1ccc(Cl)cc1)C(=O)N[C@@H]1CC(=O)NCC[C@@H](C(=O)N2CCC[C@H]2C(=O)N[C@H](C)C(N)=O)NC(=O)[C@H](CC(C)C)NC(=O)[C@@H](Cc2ccc3ccccc3c2)NC(=O)[C@H](CCCNC(=N)N)NC(=O)[C@H](C)NC1=O
9 | 9.9 nM | CC(=O)N[C@H](Cc1ccc2ccccc2c1)C(=O)N[C@H](Cc1ccc(Cl)cc1)C(=O)N[C@@H]1CSSC[C@@H](C(=O)N2CCC[C@H]2C(=O)N[C@H](C)C(N)=O)NC(=O)[C@H](CC(C)C)NC(=O)[C@@H](Cc2ccc3ccccc3c2)NC(=O)[C@H](CCCN=C(N)N)NC(=O)[C@H](C)NC1=O

same assay, conditions: hek293

Row | Ki | SMILES
10 | 55 nM | CC(=O)N[C@@H]1CCC(=O)NCCCC[C@@H](C(=O)N2CCC[C@H]2C(=O)N[C@@H](C)C(N)=O)NC(=O)[C@H](CC(C)C)NC(=O)[C@H](Cc2ccc3ccccc3c2)NC(=O)[C@H](CCCNC(=N)N)NC(=O)[C@H](C)NC(=O)[C@H](Cc2cccnc2)NC(=O)[C@H](Cc2ccc(Cl)cc2)NC1=O
11 | 11 nM | CC(=O)N[C@H](Cc1ccc2ccccc2c1)C(=O)N[C@H](Cc1ccc(Cl)cc1)C(=O)N[C@@H]1CC(=O)NCCCC[C@@H]2NC(=O)[C@H](CC(C)C)NC(=O)[C@@H](Cc3ccc4ccccc4c3)NC(=O)[C@H](CCCNC(=N)N)NC(=O)[C@H](CC(=O)NC[C@@H](C(N)=O)NC(=O)[C@@H]3CCCN3C2=O)NC1=O
12 | 490 nM | CC(=O)N[C@H](Cc1ccc2ccccc2c1)C(=O)N[C@H]1CC(=O)NCC(=O)NC[C@@H]2NC(=O)[C@H](Cc3ccc(O)cc3)NC(=O)[C@H](CC(=O)NC[C@@H](C(N)=O)NC(=O)[C@@H]3CCCN3C(=O)[C@H](CCCN=C(N)N)NC(=O)[C@H](CC(C)C)NC2=O)NC(=O)[C@@H](Cc2c[nH]c3ccccc23)NC1=O
13 | 0.38 nM | CC(=O)N[C@@H]1CC(=O)NCC(=O)NCC[C@H]2NC(=O)[C@@H](CC(=O)NC[C@H](C(N)=O)NC(=O)[C@H]3CCCN3C(=O)[C@H](CCCN=C(N)N)NC(=O)[C@@H](CC(C)C)NC(=O)[C@@H](Cc3ccc4ccccc4c3)NC2=O)NC(=O)[C@@H](Cc2ccc3ccccc3c2)NC(=O)[C@H](Cc2ccc(Cl)cc2)NC1=O

species: Rattus norvegicus; assay: Antiovulatory potency at 1 ug/rat expressed as rats ovulating by total no. of rats (5/7); assay type: functional; details: not given

Row | SMILES | Ovulating rats
14 | CC(=O)N[C@@H]1CC(=O)NCC(=O)NCC[C@H]2NC(=O)[C@@H](CC(=O)NC[C@H](C(N)=O)NC(=O)[C@H]3CCCN3C(=O)[C@H](CCCN=C(N)N)NC(=O)[C@@H](CC(C)C)NC(=O)[C@@H](Cc3ccc4ccccc4c3)NC2=O)NC(=O)[C@@H](Cc2ccc3ccccc3c2)NC(=O)[C@H](Cc2ccc(Cl)cc2)NC1=O | 5

species: Rattus norvegicus; assay: Antiovulatory potency at 2.5 ug/rat expressed as rats ovulating by total no. of rats (2/8); assay type: functional; details: not given

Row | SMILES | Ovulating rats
15 | CC(=O)N[C@@H]1CC(=O)NCC(=O)NCC[C@H]2NC(=O)[C@@H](CC(=O)NC[C@H](C(N)=O)NC(=O)[C@H]3CCCN3C(=O)[C@H](CCCN=C(N)N)NC(=O)[C@@H](CC(C)C)NC(=O)[C@@H](Cc3ccc4ccccc4c3)NC2=O)NC(=O)[C@@H](Cc2ccc3ccccc3c2)NC(=O)[C@H](Cc2ccc(Cl)cc2)NC1=O | 2

species: Rattus norvegicus; assay: Antiovulatory potency at 1000 ug/rat expressed as rats ovulating by total no. of rats (4/4); assay type: functional; details: not given

Row | SMILES | Ovulating rats
16 | CC(=O)N[C@@H]1CCC(=O)NCCCC[C@@H](C(=O)N2CCC[C@H]2C(=O)N[C@@H](C)C(N)=O)NC(=O)[C@H](CC(C)C)NC(=O)[C@H](Cc2ccc3ccccc3c2)NC(=O)[C@H](CCCNC(=N)N)NC(=O)[C@H](C)NC(=O)[C@H](Cc2cccnc2)NC(=O)[C@H](Cc2ccc(Cl)cc2)NC1=O | 4
17 | CC(=O)N[C@H](Cc1ccc2ccccc2c1)C(=O)N[C@H]1CC(=O)NCC(=O)NC[C@@H]2NC(=O)[C@H](Cc3ccc(O)cc3)NC(=O)[C@H](CC(=O)NC[C@@H](C(N)=O)NC(=O)[C@@H]3CCCN3C(=O)[C@H](CCCN=C(N)N)NC(=O)[C@H](CC(C)C)NC2=O)NC(=O)[C@@H](Cc2c[nH]c3ccccc23)NC1=O | 4
